In patent publication US20240116985A1, “STAPLED PEPTIDES AND METHODS THEREOF” (priority 2020, published 2024):
Where two headings read alike, the source gives them in different places.

Assays:
[1] = molecular target: T1, full-length beta-Catenin (Uniprot ID P35222) (Homo sapiens, UniProt P35222); assay: Fluorescence polarization IC50 (beta-catenin / 5FAM-TCF4 10-53 competition); type: binding; conditions: fluorescence polarization; read-out: beta-Catenin FP IC50
T1 construct: 10 nM full-length beta-Catenin (Uniprot ID P35222)
T1 sequence (P35222 1-781): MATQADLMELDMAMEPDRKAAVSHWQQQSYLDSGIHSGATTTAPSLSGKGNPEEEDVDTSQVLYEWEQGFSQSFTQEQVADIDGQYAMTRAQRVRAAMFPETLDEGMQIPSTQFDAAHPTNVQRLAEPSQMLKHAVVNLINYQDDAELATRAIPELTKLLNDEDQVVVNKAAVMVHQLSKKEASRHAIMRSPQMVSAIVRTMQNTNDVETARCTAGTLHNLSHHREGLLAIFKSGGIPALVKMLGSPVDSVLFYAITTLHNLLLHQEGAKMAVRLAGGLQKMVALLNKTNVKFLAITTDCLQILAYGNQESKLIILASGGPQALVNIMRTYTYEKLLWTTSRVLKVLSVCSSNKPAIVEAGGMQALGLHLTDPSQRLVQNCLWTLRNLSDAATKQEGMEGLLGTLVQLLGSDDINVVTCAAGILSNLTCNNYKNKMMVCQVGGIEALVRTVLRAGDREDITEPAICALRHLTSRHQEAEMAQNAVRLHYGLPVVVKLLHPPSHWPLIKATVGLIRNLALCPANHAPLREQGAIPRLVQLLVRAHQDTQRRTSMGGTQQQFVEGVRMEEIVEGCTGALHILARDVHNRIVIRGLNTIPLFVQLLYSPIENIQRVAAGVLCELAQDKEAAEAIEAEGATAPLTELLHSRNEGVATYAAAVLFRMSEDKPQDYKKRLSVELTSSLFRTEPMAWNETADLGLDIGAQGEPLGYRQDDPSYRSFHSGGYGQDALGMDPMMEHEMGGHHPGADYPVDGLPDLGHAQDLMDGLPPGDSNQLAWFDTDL

[2] = molecular target: T2, beta-catenin/TCF4 engagement (Homo sapiens, UniProt P35222); assay: Nano-BRET target engagement assay (B-cat-Halo & TCF4-Luc in HEK293 cells); type: cell-based; conditions: read-out: NanoBRET Abs IC50
T2 construct: expressed in transfected cells; host or cells: HEK293
T2 sequence (P35222 1-781): T1 sequence (P35222 1-781)

| Compound | IC50 [1] | IC50 [2] | IC50 ([2]; absolute IC50) |
| --- | --- | --- | --- |
| CC(=O)N1CCC[C@]12CC=CCCCC1(CCCC=CCCCOC(=O)N3CC[C@@](C(=O)N[C@@H](Cc4ccsc4)C(=O)N[C@@H](Cc4csc5ccccc45)C(=O)N[C@@H](CC(N)=O)C(N)=O)(C3)NC(=O)[C@H](C)NC(=O)[C@H](Cc3ccccc3)NC(=O)[C@H](C)NC(=O)[C@H](C)NC(=O)[C@H](Cc3cccc(C(=O)O)c3)NC(=O)[C@H](CC(=O)O)NC1=O)NC(=O)[C@H](CC(C)(C)C)NC(=O)[C@H](CC(=O)O)NC2=O (stereo partly drawn) [I-2042, Ac-PL3-Asp-Npg-B5-Asp-3COOHF-Ala-Ala-Phe-Ala-PyrS2-3Thi-BztA-Asn-NH2] | 9 nM | 10000 nM |  |
| CC(=O)N1CCC[C@]12CC=CCCCC1(CCCC=CCCCOC(=O)N3CC[C@@](C(=O)N[C@@H](Cc4ccsc4)C(=O)N[C@@H](Cc4csc5ccccc45)C(=O)N[C@@H](CCC(N)=O)C(N)=O)(C3)NC(=O)[C@H](CC(C)C)NC(=O)[C@H](Cc3ccccc3)NC(=O)[C@H](C)NC(=O)[C@H](C)NC(=O)[C@H](CC(=O)O)NC(=O)[C@H](CC(=O)O)NC1=O)NC(=O)[C@H](CC(C)(C)C)NC(=O)[C@H](CC(N)=O)NC2=O (stereo partly drawn) [I-1221, Ac-PL3-Asn-Npg-B5-Asp-Asp-Ala-Ala-Phe-Leu-PyrS2-3Thi-BztA-Gln-NH2] | 14 nM |  | 23400 nM |
| CC(=O)N1CCC[C@]12CC=CCCCC1(CCCC=CCCCCCC[C@@](C)(C(=O)N[C@@H](Cc3ccccc3)C(=O)N[C@@H](Cc3csc4ccccc34)C(=O)N[C@@H](CCC(N)=O)C(N)=O)NC(=O)[C@H](CC(C)C)NC(=O)[C@H](Cc3ccccc3)NC(=O)[C@H](C)NC(=O)[C@H](C)NC(=O)[C@H](CCC(=O)O)NC(=O)[C@H](CC(=O)O)NC1=O)NC(=O)[C@H](Cc1ccccc1)NC(=O)[C@H](CC(=O)O)NC2=O (stereo partly drawn) [I-1550, Ac-PL3-Asp-Phe-B5-Asp-Glu-Ala-Ala-Phe-Leu-S8-Phe-BztA-Gln-NH2] | 22 nM |  | 15300 nM |
| CC(=O)N1CCC[C@]12CC=CCCCC1(CCCC=CCCCOC(=O)N3CC[C@@](C(=O)N[C@@H](Cc4ccsc4)C(=O)N[C@@H](Cc4csc5ccccc45)C(=O)N[C@@H](CC(N)=O)C(=O)N[C@@H](C)C(=O)N[C@@H](CC(C)C)C(=O)N[C@@H](C)C(=O)N[C@@H](CC(C)C)C(=O)N[C@@H](C)C(=O)N[C@@H](CC(C)C)C(=O)N[C@@H](C)C(N)=O)(C3)NC(=O)[C@H](CC(C)C)NC(=O)[C@H](Cc3ccccc3)NC(=O)[C@H](C)NC(=O)[C@H](C)NC(=O)[C@H](Cc3cccc(C(=O)O)c3)NC(=O)[C@H](CC(=O)O)NC1=O)NC(=O)[C@H](CC(C)(C)C)NC(=O)[C@H](CC(=O)O)NC2=O (stereo partly drawn) [I-2283] | 2860 nM |  | 4500 nM |
| CC(=O)N1CCC[C@]12CC=CCCCC1(CCCC=CCCCOC(=O)N3CC[C@@](C(=O)N[C@@H](Cc4ccsc4)C(=O)N[C@@H](Cc4csc5ccccc45)C(=O)N[C@@H](CCC(N)=O)C(N)=O)(C3)NC(=O)[C@H](CC(C)C)NC(=O)[C@H](Cc3ccccc3)NC(=O)[C@H](C)NC(=O)[C@H](CC(=O)N3CCOCC3)NC(=O)[C@H](CC(=O)O)NC(=O)[C@H](CC(=O)O)NC1=O)NC(=O)[C@H](CC(C)(C)C)NC(=O)[C@H](CC(=O)O)NC2=O (stereo partly drawn) [I-1483, Ac-PL3-Asp-Npg-B5-Asp-Asp-MorphAsn-Ala-Phe-Leu-PyrS2-3Thi-BztA-Gln-NH2] | 22 nM |  | > 20000 nM |
| CC(=O)N1CCC[C@]12CC=CCCCC1(CCCC=CCCCCCC[C@@](C)(C(=O)N[C@@H](Cc3ccccc3)C(=O)N[C@@H](Cc3csc4ccccc34)C(=O)N[C@@H](CCC(N)=O)C(N)=O)NC(=O)[C@H](CCC(N)=O)NC(=O)[C@H](Cc3ccccc3)NC(=O)[C@H](C)NC(=O)[C@H](C)NC(=O)[C@H](CCC(=O)O)NC(=O)[C@H](CC(=O)O)NC1=O)NC(=O)[C@H](CO)NC(=O)[C@H](CC(=O)O)NC2=O (stereo partly drawn) [I-1526, Ac-PL3-Asp-Ser-B5-Asp-Glu-Ala-Ala-Phe-Gln-S8-Phe-BztA-Gln-NH2] | 84 nM |  | > 20000 nM |
